The record followed here is patent publication US8389509B2, “Substituted pyrazole compounds” (Bristol-Myers Squibb Company, priority 2009, dated 2013).

Assay [1] has as its target T1, S1P1 (Homo sapiens, UniProt P21453).
T1 construct: expressed in transfected cells; host or cells: CHO cells
Briefly: Method B: Receptor [35S] GTPγS SPA Binding Assay, S1P1. Format: biochemical. The conditions noted are these: for GTPγS S1P3/S1P1 (Method B): ratio of S1P3 EC50 to S1P1 EC50, Method B; for EC50: Method B (SPA), S1P1 transfected CHO cell membranes. The method, then:
(§1) Method B: Receptor [^35S] GTPγS SPA Binding Assays
(§2) Membranes prepared from S1P1 or S1P3 transfected CHO cells (2 μg protein) were incubated in 96-well white plates (CORNING® 3693) with test compounds diluted in DMSO, in 50 μl of reaction mixture containing 7.5 μA WGA-PVT beads (20 mg/ml), and 5 μM GDP, 20 mM HEPES pH 7.4, 100 mM NaCl, 1 mM EDTA, 5 mM MgCl2, 10 μg/ml saponin, 0.1% BSA, and 1 μM leupeptin. The assay was initiated with the addition of […] of 0.2 nM [^35S]-GTPγS (1250 Ci/mmol; NEN) in assay buffer. After 90 min incubation at room temperature, spin the plate at 1000 rpm for 5 min. The bound radionuclides were measured at TOPCOUNT®, expressed as % response relative to S1P (1 μM) activation. Data was analyzed using the four parameter logistic equation in Excel. The four parameters in the equation, Y=A+((B−A)/(1+((EC50/X)^D))), are described as following: A is the Y value (agonist activity) at the bottom plateau; B is the Y value at the top plateau; EC50 is the X value (agonist concentration) when the response is halfway between bottom and top; D is Hill coefficient. Curves were not generated for compounds having Ymax values were below 50%.
(§3) Compounds of the present invention and Comparative Compound A were tested in the Receptor [^35S] GTPγS Binding Assays (Method A) and Receptor [^35S] In some instances, the value is an average of multiple experiments where N is the number of experiments conducted that provided satisfactory dose response curves. When more than one batch of an example was tested, the value presented is from a batch which allowed a comparison of GTPγS S1P1 and GTPγS S1P3 in which the most number of experiments were performed. Preferably, the same batch was examined in Method A and Method B. Data was not averaged across different batches of an example compound.
For orientation: GTPγS resists hydrolysis and so accumulates on activated G proteins.

For assay [2], the target named is T1, S1P1. Briefly: Method A: Receptor [35S] GTPγS Binding Assay, S1P1. Format: biochemical. The conditions noted are these: ratio of S1P3 EC50 to S1P1 EC50, Method A. The method, then:
Method A: Receptor [35S] GTPγS Binding Assays
Compounds were loaded in a 384 FALCON® v-bottom plate (0.5 μl/well in a 3-fold dilution). Membranes prepared from S1P1/CHO cells or EDG3-Gal5-bla HEK293T cells were added to the compound plate (40 μl/well, final protein 3 μg/well) with MULTIDROP®. [^35S]GTP (1250 Ci/mmol, Perkin Elmer) was diluted in assay buffer: 20 mM HEPES, pH7.5, 10 mM MgCl2, 150 mM NaCl, 1 mM EGTA, 1 mM DTT, 10 μM GDP, 0.1% fatty acid free BSA, and 10 μg/ml Saponin to 0.4 nM. 40 μl of the [^35S] GTP solution was added to the compound plate with a final concentration of 0.2 nM. The reaction was kept at room temperature for 45 min. At the end of incubation, all the mixtures in the compound plate were transferred to a 384 well FB filter plates via GPCR robot system. The filter plate was washed with water 4 times by using the modified manifold Embla plate washer and dried at 60° C. for 45 min. 30 μA of MicroScint 20 scintillation fluid was added to each well for counting at Packard TOPCOUNT®. EC50 is defined as the agonist concentration that corresponds to 50% of the Ymax (maximal response) obtained for each individual compound tested.
as §3

In assay [3] the target is S1P3 (Homo sapiens, UniProt Q99500). Nature of the assay: Method B: Receptor [35S] GTPγS SPA Binding Assay, S1P3. Format: biochemical. More on the design: expressed in transfected cells; host or cells: CHO cells. Particulars: S1P3 transfected CHO cell membranes. The method, then:
as §1, §2, §3

Assay [4] has as its target T1, S1P1. Nature of the assay: S1P1 Binding Assay (33P-S1P competition, CHO membranes). Particulars: membranes of CHO cells expressing human S1P1, 33P-S1P ligand; read-out: S1P1 B IC50. The method, then:
Membranes were prepared from CHO cells expressing human S1P1. Cells were dissociated in buffer containing 20 mM HEPES, pH 7.5, 50 mM NaCl, 2 mM EDTA and Protease Inhibitor cocktail (Roche), and disrupted on ice using the Polytron homogenizer. The homogenate was centrifuged at 20,000 rpm (48,000 g) and the supernatant was discarded. The membrane pellets were resuspended in buffer containing 50 mM HEPES, pH 7.5, 100 mM NaCl, 1 mM MgCl2, 2 mM EDTA and stored in aliquots at −80° C. after protein concentration determination.
Membranes (2 μg/well) and 0.03 nM final concentration of ^33P-S1P ligand (1 mCi/ml, American Radiolabeled Chemicals) were added to the compound plates. Binding was performed for 60 min at room temperature, terminated by collecting the membranes onto GF/B filter plates, and radioactivity was measured by TOPCOUNT®. The competition data of the test compounds over a range of concentrations was plotted as percentage inhibition of radioligand specific binding. The IC50 is defined as the concentration of competing ligand needed to reduce specific binding by 50%.
Compounds of the present invention and Comparative Compound A were tested in the S1P1 binding assay described hereinabove and the results rounded to two digits, shown in Table A were obtained. In some instances, the value is an average of multiple experiments where N is the number of experiments conducted that provided satisfactory dose response curves. When more than one batch of an example was tested, the value presented is from the batch which allowed a comparison of GTPγS S1P1 and GTPγS S1P3 in Method A (Data shown in Table B). Data was not averaged across different batches of an example compound.

Where a name gives a salt, the structure may show the parent alone.

T1 sequence (P21453 whole entry): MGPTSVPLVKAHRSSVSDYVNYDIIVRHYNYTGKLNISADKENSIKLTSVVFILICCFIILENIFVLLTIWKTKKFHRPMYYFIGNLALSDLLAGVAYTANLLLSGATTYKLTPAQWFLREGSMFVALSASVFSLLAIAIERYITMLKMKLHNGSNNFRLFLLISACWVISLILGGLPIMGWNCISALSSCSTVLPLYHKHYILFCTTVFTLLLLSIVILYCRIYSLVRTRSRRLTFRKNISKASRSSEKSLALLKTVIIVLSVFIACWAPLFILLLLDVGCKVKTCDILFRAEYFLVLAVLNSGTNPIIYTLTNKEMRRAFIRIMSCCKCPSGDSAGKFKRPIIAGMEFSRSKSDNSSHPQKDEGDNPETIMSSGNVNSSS
S1P3, sequence (Q99500 whole entry): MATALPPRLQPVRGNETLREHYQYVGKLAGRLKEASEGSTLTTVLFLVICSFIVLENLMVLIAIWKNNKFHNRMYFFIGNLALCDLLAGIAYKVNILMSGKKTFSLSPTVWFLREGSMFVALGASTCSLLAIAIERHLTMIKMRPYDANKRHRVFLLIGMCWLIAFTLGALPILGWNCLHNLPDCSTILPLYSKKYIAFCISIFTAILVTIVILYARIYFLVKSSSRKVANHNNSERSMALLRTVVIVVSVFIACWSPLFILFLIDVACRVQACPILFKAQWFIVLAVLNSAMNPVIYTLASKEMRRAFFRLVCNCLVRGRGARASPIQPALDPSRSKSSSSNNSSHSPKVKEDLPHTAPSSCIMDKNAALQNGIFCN

Take `O=C(O)C1CN(Cc2ccc(-c3noc(-c4cc(-c5ccccc5)c(C(F)(F)F)s4)n3)cc2)C1` [Comp. A, 1-(4-(5-(4-phenyl-5-(trifluoromethyl)thiophen-2-yl)-1,2,4-oxadiazol-3-yl)benzyl)-azetidine-3-carboxylic acid, reference compound]: the “GTPγS S1P3/S1P1 (Method B)” value in assay [1] is on record as 78. Further, in assay [2], the “GTPγS S1P3/S1P1 (Method A)” value is 1.2.

For `CC(C)Nc1c(-c2nc(-c3ccc(CN4CC(C(=O)O)C4)cc3)no2)cnn1-c1ccccc1` [Example 3, 1-(4-(5-(5-(isopropylamino)-1-phenyl-1H-pyrazol-4-yl)-1,2,4-oxadiazol-3-yl)benzyl)azetidine-3-carboxylic acid], the concentration for a half-maximal effect (EC50) in assay [3] stood at 1700 nM; in assay [1] it was 0.15 nM. Also, the “GTPγS S1P3/S1P1 (Method B)” value in assay [1] is 11,000. The IC50 in assay [4] worked out at 0.48 nM.

On to `CCNc1c(-c2nc(-c3ccc(CN4CC(C(=O)O)C4)cc3)no2)cnn1-c1ccccc1` [Example 4, 1-(4-(5-(5-(ethylamino)-1-phenyl-1H-pyrazol-4-yl)-1,2,4-oxadiazol-3-yl)benzyl)azetidine-3-carboxylic acid], for which the EC50 in assay [3] was determined as 400 nM. Further, in assay [1], the EC50 stood at 0.19 nM and the “GTPγS S1P3/S1P1 (Method B)” value is on record as 2,100. Also, the concentration for half-maximal inhibition (IC50) in assay [4] is 1.1 nM.

Turning to `O=C(O)C1CN(Cc2ccc(-c3noc(-c4cnn(-c5ccccn5)c4C4CCCC4)n3)cc2)C1` [Example 7, 1-(4-(5-(5-cyclopentyl-1-(pyridin-2-yl)-1H-pyrazol-4-yl)-1,2,4-oxadiazol-3-yl)benzyl)azetidine-3-carboxylic acid], in assay [3], the EC50 amounted to 220 nM. Also, in assay [1], it took 0.087 nM to reach a half-maximal effect (EC50) and the “GTPγS S1P3/S1P1 (Method B)” value is 2,500. Moreover, the IC50 in assay [4] worked out at 0.19 nM.

As to `Cc1c(-c2nc(-c3ccc(CN4CC(C(=O)O)C4)cc3)no2)cnn1C1CCCCC1` [Example 9, 1-(4-(5-(1-cyclohexyl-5-methyl-1H-pyrazol-4-yl)-1,2,4-oxadiazol-3-yl)benzyl)azetidine-3-carboxylic acid], the EC50 in assay [3] turned out to be 710 nM; in assay [1] it was 1.3 nM. In addition, the “GTPγS S1P3/S1P1 (Method B)” value in assay [1] is listed as 550.

For `O=C(O)C1CN(Cc2ccc(-c3noc(-c4cnn(-c5ccccn5)c4-c4ccccc4)n3)cc2)C1` [Example 10, 1-(4-(5-(5-phenyl-1-(pyridin-2-yl)-1H-pyrazol-4-yl)-1,2,4-oxadiazol-3-yl)benzyl)azetidine-3-carboxylic acid], in assay [3], the midpoint of the response, the EC50, lay at 1100 nM. In addition, in assay [1], the EC50 was found to be 0.42 nM and the “GTPγS S1P3/S1P1 (Method B)” value is given as 2,600. Besides, the IC50 in assay [4] amounted to 1.1 nM.

`O=C(O)C1CN(Cc2ccc(-c3noc(-c4cnn(-c5ccccc5)c4Cl)n3)cc2)C1` [Example 11, 1-(4-(5-(5-chloro-1-phenyl-1H-pyrazol-4-yl)-1,2,4-oxadiazol-3-yl)benzyl)azetidine-3-carboxylic acid] yielded an EC50 in assay [3] of 2000 nM. In assay [1], the half-maximal effective concentration (EC50) turned out to be 1.9 nM and the “GTPγS S1P3/S1P1 (Method B)” value is 1,100.

`CC(C)CNc1c(-c2nc(-c3ccc(CN4CC(C(=O)O)C4)cc3)no2)cnn1-c1ccccc1` [Example 12, 1-(4-(5-(5-(Isobutylamino)-1-phenyl-1H-pyrazol-4-yl)-1,2,4-oxadiazol-3-yl)benzyl)azetidine-3-carboxylic acid] had a 50% effective concentration (EC50) in assay [3] of 9800 nM. In assay [1], the midpoint of the response, the EC50, lay at 0.28 nM and the “GTPγS S1P3/S1P1 (Method B)” value is listed as 35,000. Also, the half-maximal inhibitory concentration (IC50) in assay [4] came to 1.7 nM.

Turning to `CCCCNc1c(-c2nc(-c3ccc(CN4CC(C(=O)O)C4)cc3)no2)cnn1-c1ccccc1` [Example 13, 1-(4-(5-(5-(n-butylamino)-1-phenyl-1H-pyrazol-4-yl)-1,2,4-oxadiazol-3-yl)benzyl)azetidine-3-carboxylic acid], the EC50 in assay [3] was 51 nM; in assay [1], 0.17 nM. For the same molecule, in assay [1], the “GTPγS S1P3/S1P1 (Method B)” value amounted to 300. The IC50 in assay [4] came to 3.1 nM.

On to `O=C(O)C1CN(Cc2ccc(-c3noc(-c4cnn(-c5ccccc5)c4Br)n3)cc2)C1` [Example 14, 1-(4-(5-(5-Bromo-1-phenyl-1H-pyrazol-4-yl)-1,2,4-oxadiazol-3-yl)benzyl)azetidine-3-carboxylic acid, 2,2,2-trifluoroacetic acid salt], for which the EC50 in assay [3] came to 7100 nM; in assay [1], 2.1 nM. In addition, in assay [1], the “GTPγS S1P3/S1P1 (Method B)” value was 3,400. Moreover, the IC50 in assay [4] was 0.98 nM.

For orientation: EC50 means the concentration that produces a half-maximal response. The low end stands for a more potent agent, the high end for a less potent agent. What is called IC50 is the concentration needed to halve the response being measured.
